# Measured values published in patent US8592468B2, “Bacterial thioredoxin reductase inhibitors and methods for use thereof” (Thioredoxin Systems AB, priority 2006, dated 2013).
# Read-outs that look alike come from different tables or passages of the source.
# What was measured:
# [1] = system: mammalian thioredoxin reductases; assay: Inhibition of mammalian thioredoxin reductases; assay type: biochemical
# [2] = biological target: T1, E. coli TrxR (Escherichia coli (strain K12), UniProt P0A9P4); assay type: biochemical
# T1 sequence (P0A9P4 2-321 limits assumed): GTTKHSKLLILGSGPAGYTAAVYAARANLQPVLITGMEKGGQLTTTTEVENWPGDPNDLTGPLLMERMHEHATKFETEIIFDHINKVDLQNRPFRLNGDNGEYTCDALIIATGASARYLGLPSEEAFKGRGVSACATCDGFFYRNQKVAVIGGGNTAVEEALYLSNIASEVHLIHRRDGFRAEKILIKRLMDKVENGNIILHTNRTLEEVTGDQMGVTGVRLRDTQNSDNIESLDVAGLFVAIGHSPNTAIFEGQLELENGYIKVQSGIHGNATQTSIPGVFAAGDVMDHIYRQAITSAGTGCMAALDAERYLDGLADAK
# Method: In FIG. 6A, 10 μM of ebselen (▴) and 10 μM of PZ25 (▪) were used as substrate of 25 nM calf thymus TrxR. In FIG. 6B, 10 μM of PZ25 was used as substrate for 10 nM calf thymus TrxR (◯) and 10 nM of E. coli TrxR (●). Reactions were started by adding enzymes in cuvettes containing 500 μl TE buffer with 100 μM NADPH, of which the consumption were followed by the changes of the absorption at 340 nm against identical blank without enzymes.
# Reactions were started by adding enzymes to cuvettes containing 500 μl TE buffer with 100 μM NADPH and 16 μM compounds. The NADPH consumption was followed by the changes of the absorption at 340 nm against identical blank without enzymes.
# (§1) The activity of the enzyme was determined at room temperature using an Ultrospec 3000 UV/Visual spectrophotometer (Amersham Biosciences). […] The enzyme-catalysed reactions were followed at 340 nm using the standard calculation of NADPH oxidation to NADP^+ with a molar extinction coefficient of 6200 M^−1 cm^−1 (32, 34). The conditions of the assay of bacterial thioredoxin reductase have been described (32, 34) using either 1 mM DTNB or 160 μM insulin as a substrate. In DTNB coupled assays, 240 μM NADPH and 1 mM DTNB were used in the TE buffer and formation of the TNB was measured at 412 nm, where TNB has an extinction coefficient of 13600 M^−1 cm^−1.
# (§2) Further we examined the effect of ebselen in the reduction of disulphide by E. coli Trx and TrxR using both DTNB and insulin as substrates. […] FIGS. 4A and 4B show the effect of ebselen (4A) and ebselen diselenide (4B) on DTNB reduction by E. coli thioredoxin and thioredoxin reductase. Assays in semi-microcuvettes with 0.5 ml solution contained 0.24 mM NADPH, 1 mM DTNB in 50 mM Tris-Cl/1 mM EDTA, pH 7.5 buffer. (A) In the presence of 2 μM (grey filled points), 5 μM (white filled points) and 10 μM (black filled points) of E. coli Trx and 7.6 nM of E. coli TrxR with ebselen at concentrations of zero (squares), 0.5 μM (triangles), 1 μM (rhombus), and 2 μM (rounds), the increase in A412 was measured against a blank. (B) In the presence of 2 μM (grey filled points), 5 μM (white filled points) and 10 μM (black filled points) of E. coli Trx and 10 nM of E. coli TrxR, with ebselen diselenide at concentrations of zero (squares), 1 μM (triangles) and 2 μM (rounds), the increase in A412 was measured against a blank.
# [3] = biological target: E. coli Trx-(SH)2 (Escherichia coli (strain K12), UniProt P0AA25); conditions: fluorescence spectroscopy; cited from earlier work
# [4] = biological target: T1, E. coli TrxR; assay: Inhibition of E. coli TrxR reduction of Trx, DTNB coupled assay (Lineweaver-Burk); assay type: biochemical
# Method: FIGS. 4A and 4B show the effect of ebselen (FIG. 4A) and ebselen diselenide (FIG. 4B) on DTNB reduction by E. coli thioredoxin and thioredoxin reductase. Assays were contained in 0.50 ml semi-microcuvettes containing 0.24 mM NADPH, 1 mM DTNB in 0.10 M Tris-Cl, pH 8.0, 1 mM EDTA. The increase in A412 was measured against a blank using 10 nM E. coli TrxR in the presence of 2 μM (grey filled points), 5 μM (white filled points), 10 μM (black filled points) E. coli Trx with 0 (squares), 0.5 μM (triangles), 1 μM (rhombus), 2 μM (rounds) of ebselen or ebselen diselenide.
# (A) Ebselen concentrations were 0 μM (▴), 0.5 μM (∀), 1 μM (▪) and 2 μM (Δ). […] (B) Ebselen concentrations were 0 μM (▴), 1 μM (▪) and 2 μM (∀).
# as §1, §2
# [5] = system: wild type DHB4 E. coli; assay: Bacterial inhibition by ebselen derivates, MIC; conditions: Escherichia coli, DHB4E.COLI, 4 h, read-out: MIC for wild type DHB4 E. coli
# Method: E. coli DHB4 strains wt, gshA^−, gor^−, oxyR^− were cultured overnight in LB medium. […] OD 600 was detected and DMSO was used as the control. […] The data are the means of two experiments.
# [6] = biological target: E. coli ribonucleotide reductase (Escherichia coli (strain K12), UniProt P00452+P69924); assay: Inhibition of E. coli ribonucleotide reductase (data not shown); assay type: biochemical
# Chain of E. coli ribonucleotide reductase (P00452 whole entry, looked up): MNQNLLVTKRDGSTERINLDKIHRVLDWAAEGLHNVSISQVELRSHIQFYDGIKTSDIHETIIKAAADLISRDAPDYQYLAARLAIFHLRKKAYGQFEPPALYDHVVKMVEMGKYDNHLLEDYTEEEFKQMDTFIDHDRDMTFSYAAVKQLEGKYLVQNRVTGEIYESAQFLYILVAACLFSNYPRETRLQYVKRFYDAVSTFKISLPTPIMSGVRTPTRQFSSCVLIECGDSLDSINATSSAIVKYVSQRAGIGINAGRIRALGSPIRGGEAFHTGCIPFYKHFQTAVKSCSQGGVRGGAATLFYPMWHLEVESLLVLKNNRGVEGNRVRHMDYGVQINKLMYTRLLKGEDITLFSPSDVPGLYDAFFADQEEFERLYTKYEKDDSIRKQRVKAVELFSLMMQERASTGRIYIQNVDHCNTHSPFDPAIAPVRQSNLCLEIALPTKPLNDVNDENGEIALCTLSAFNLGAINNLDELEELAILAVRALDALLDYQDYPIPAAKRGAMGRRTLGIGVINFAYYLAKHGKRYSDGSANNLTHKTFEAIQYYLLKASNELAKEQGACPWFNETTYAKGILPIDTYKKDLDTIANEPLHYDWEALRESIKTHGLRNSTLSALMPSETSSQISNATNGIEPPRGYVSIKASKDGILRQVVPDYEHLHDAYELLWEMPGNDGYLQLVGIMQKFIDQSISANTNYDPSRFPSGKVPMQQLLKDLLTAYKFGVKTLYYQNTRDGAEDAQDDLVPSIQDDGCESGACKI
# Chain of E. coli ribonucleotide reductase (P69924 whole entry, looked up): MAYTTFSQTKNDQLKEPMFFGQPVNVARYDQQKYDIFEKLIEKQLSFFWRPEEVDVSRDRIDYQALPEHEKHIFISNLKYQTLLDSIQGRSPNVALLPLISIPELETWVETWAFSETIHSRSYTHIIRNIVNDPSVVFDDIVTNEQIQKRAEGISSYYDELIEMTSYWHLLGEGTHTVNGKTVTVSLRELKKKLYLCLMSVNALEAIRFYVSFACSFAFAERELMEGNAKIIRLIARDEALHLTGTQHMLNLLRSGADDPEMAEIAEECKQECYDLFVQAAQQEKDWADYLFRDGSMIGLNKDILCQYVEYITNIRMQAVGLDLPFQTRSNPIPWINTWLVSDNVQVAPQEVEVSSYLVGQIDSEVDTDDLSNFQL
# [7] = system: E. coli NHHJ; conditions: strains of Enterobacteriaceae like E. coli NHHJ; cited from earlier work
# [8] = system: Staphylococcus aureus; conditions: cited from earlier work
# [9] = system: E. coli DHB4 strains; assay: Sensitivity of growth of E. coli DHB4 strains to ebselen (A600); assay type: cell-based
# Method: Bacterial cells were grown in 5 mL cultures at 37° C., 120 rpm in 15 mL closed tubes containing Lutria-Bertani (LB) or M9 minimal media supplemented with 50 μg/ml Leu, Ile, 1× basal medium Eagle's vitamin solution (Invitrogen) and 2 μg/mL nicotinic acid. For the experiments regarding sensitivity of growth to ebselen, cells were initially grown overnight at 37° C. at the respective medium. The next day, equal cell numbers (as determined by A600) with dilutions of at least 1:50 were used to start 5 mL cultures containing different concentrations of Ebselen. Ebselen stock solutions were freshly prepared in DMSO. Extra DMSO was added to the cultures so that the total volumes of DMSO were the same per culture even at different final concentrations of Ebselen. Growth inhibition assays were carried out also on M9 minimal plates. The plates were covered with minimal top agar that contained equal cell number for all the strains examined. These were derived from overnight liquid cultures in M9 medium.
# Sensitivity to ebselen was measured by inhibition of growth as determined by scattering (absorbance) at 600 nm at different times after inoculation.
compound,measurement,setting,value
"O=c1c2ccccc2[se]n1-c1ccccc1 [EbSe 6, 2-phenyl-1,2-benzisoselenazol-3(2H)-one]",inhibitory activity of mammalian thioredoxin reductases,[1],no inhibitory activity
same,oxidation of NADPH when directly added to E. coli TrxR and NADPH,[2],no oxidations of NADPH
same,second-order rate constant of reaction with reduced E. coli Trx,[3],2e+07 M⁻¹ s⁻¹
same,inhibition of E. coli TrxR (in words),[4],strongly inhibited
same,Ki,"[4]; Ki (competitive inhibitor of Trx reduction by E. coli TrxR), from Lineweaver-Burk slopes",150 nM
same,MIC,[5],40 µM
same,inhibition of E. coli ribonucleotide reductase,[6],effective direct inhibitor
same,concentration required to inhibit growth,[7],up to 50 μg per ml
same,mode of antibacterial action,[8]; S. aureus strains,bacteriocidal
same,concentration inhibiting growth,[8]; Staphylococcus aureus 209P,0.20 µg/mL
same,MIC for 90% of S. aureus strains,[8],1.56 μg per ml
same,sensitivity of S. aureus relative to E. coli,[8],100 fold
same,concentration inhibiting growth,[8]; methicillin resistant Staphylococcus aureus,0.20 μg per ml
same,wild type bacteria compared with gor^− and gshA^− strains,[9],more resistant
same,sensitivity of gshA^−trxA^− strain,[9]; LB medium,more sensitive
same,sensitivity of strain trxA^−C^− compared with wild type,[9]; LB medium,"similar, if not less"
same,growth of gor^− and gshA^− strains in presence of ebselen,[9]; minimal media (M9),hardly grew
